Data on one substance can be found in patent US20080139668A1, “PHARMACEUTICAL COMPOSITION FOR OBOVATOL FOR THE PREVENTION AND TREATMENT OF RESTENOSIS” (Korea Research Institute of Bioscience and Biotechnology, priority 2006, published 2008).

In series [1] the test system is arterial smooth muscle cells. Description: Inhibition of PDGF-induced arterial smooth muscle cell proliferation (cell count). Conditions: obovatol 1, 3, 5 μM; 50 ng/ml PDGF-BB; 24, 48, 72 hours; FIG. 9. Format: cell-based, rat. On the procedure:
Obovatol was examined for inhibitory activity against the proliferation of arterial smooth muscle cells in rats. Arterial smooth muscle cells were plated at a density of 3.0×10^4 cells/well onto 12-well plates containing a DMEM medium supplemented with 0.5% (V/V) fetal bovine serum, and incubated for 24 hours After the addition of obovatol (1, 3, and 5 μM) to the plates, the cells were incubated for 24 hours. Treatment with 50 ng/ml of platelet-derived growth factor (PDGF-BB, Sigma Chem. Co., USA) was followed by incubation for 24, 48, and 72 hours. Thereafter, the cells were trypsinized and counted using a cell counter.

A further series relates to SPF Sprague-Dawley rats. The series can be described thus: Acute toxicity assay in rats. The format is in vivo, rat. The settings on record: abdominal injection 1000, 100, 10 mg/kg. On the procedure:
(§1) ICR mice (weighing 25±5 g) and SPF Sprague-Dawley rats (weighing 235±10 g) were separately divided into four groups of three and abdominally injected with the obovatol prepared in Example 2 at doses of 1000 mg/kg, 100 mg/kg, and 10 mg/kg and monitored for toxicity over 24 hours.

In series [2] the test system is arterial smooth muscle cells. Description: Inhibition of DNA synthesis ([3H] thymidine) in PDGF-treated arterial smooth muscle cells. The format is cell-based, rat. The settings on record: obovatol 1, 3, 5 μM, FIG. 10. On the procedure: Arterial smooth muscle cells were cultured in the same manner as in Example 4, with the exception that the cells were cultured for 20 hours after treatment with platelet-derived growth factor, and then cultured for 4 hours in the presence of 1 μl of [3H] thymidine. The cultured cells were washed with PBS and incubated with 500 μl of TCA (trichloroacetic acid) for 30 min. After the removal of TCA, the cells were washed with a mixture of 1:1 ethanol:ether (v/v) and disrupted with 500 μl of NaOH. The cell lysate was mixed with 5 ml of a scintillation cocktail and measured for radioactivity to analyze relative amounts of newly synthesized DNA. FIG. 10 is a graph in which amounts of newly synthesized DNA in PDGF-treated arterial smooth muscle cells are plotted against concentrations of obovatol.

The next series has as its system ICR mice. The series can be described thus: Acute toxicity assay in mice. Format: in vivo, mouse. Conditions: abdominal injection 1000, 100, 10 mg/kg. On the procedure: as §1
The test system of series [3] is injured carotid artery.
Procedure: For the topical application of obovatol in vivo, pluronic gel was employed. F-127 pluronic gel (Sigma Chemical Company, Germany) was dissolved in cold, deionized water to give 40% gel one day before the experiment, and was allowed to stand at 4° C. for 12 hours to dissolve powdered F-127 pluronic gel completely. On the day of the experiment, obovatol was dissolved in a concentration of 10 μg/μL in 100% ethanol and 10 μL of the obovatol solution (10 μg/μL) was mixed with 90 μL of the 40% F-127 pluronic gel to afford 100 μL of obovatol-pluronic gel, comprising 100 μg of obovatol. A control was prepared in the same manner except that no obovatol was contained therein.
After rats were anaesthetized by abdominal injection with ketamine (50 mg/kg) and xylazine (6.7 mg/kg) and incised to expose the common carotid artery, the external carotid artery and the internal carotid artery were exteriorized through a ventral right line neck incision. While blood flow was temporarily halted by occluding the artery with microvascular clamps (Acland, S&T, Switzerland) at the proximal region of the common carotid artery and the distal region of the internal carotid artery, arteriotomy was performed on the external carotid artery. A 2F Fogarty arterial embolectomy catheter (Baxter Healthcare Corporation, USA) was inserted into the lumen of the right common carotid artery through the incised region and the balloon was inflated to a size larger than the diameter of the common carotid artery so as to generate slight arterial wall resistance. The catheter was advanced a predetermined distance and then withdrawn. This procedure was repeated a total of three times to induce endothelial denudation, after which the catheter (the balloon?) was removed from the arterial lumen. Then, the microvascular clamps were removed to allow blood to flow through the artery. Secretions and blood were completely removed from the exterior of the carotid artery before the obovatol-pluronic gel or the obovatol-lacking pluronic gel were topically applied in an amount of 100 μL to upper loci of the carotid artery, followed by ligation of the artery with a suture. Two weeks after the arteriotomy, a carotid artery angiography was conducted and a carotid artery sample was taken and analyzed histopathologically.
The subject of series [4] is arterial smooth muscle cells. The series can be described thus: Cell cycle of arterial smooth muscle cells. The format is cell-based.
Series [5] has as its system injured carotid artery. Description: Carotid artery angiography in the rat carotid artery balloon injury model. Format: in vivo. Conditions: 100 μg obovatol in 100 μL pluronic gel, topical to injured carotid artery; 14 days after arteriotomy; mean±S.E.; control 0.63±0.12; p<0.01. On the procedure: A 4F vascular cannula (Cook, USA) was inserted into the ventral aorta and the catheter was advanced toward the head to a locus as close as possible to a branch between the common carotid arteryand the transverse aorta. After the injection of a contrast media (Visipaque™, Amersham Health, Cork, Ireland), mean luminal diameters (MLD) were measured using computerized coronary angiography (DCI Videodensitometry, Phillips, Netherlands)(See FIG. 1˜FIG. 8).
They were measured for the inner diameter of the carotid artery using a 5F coronary catheter, and the mean value thereof was used as a control.

[6] abbreviates: 100 μg obovatol in pluronic gel, topical, two weeks after injury, control 0.18 ± 0.06, P < 0.05.

For the substance obovatol, the “growth of arterial smooth muscle cells (cell count)” value in series [1] is “inhibitory of the growth of arterial smooth muscle cells”. The “abnormality (body weight, food intake, etc.)” value in the series with SPF Sprague-Dawley rats (24 hours) and with ICR mice (24 hours) was “no abnormality observed in any of the animals” each time. The death result in the series with SPF Sprague-Dawley rats (monitored 24 hours) and in the series on ICR mice (monitored 24 hours) was “Death was observed in none of the four groups” throughout. Also, the “DNA synthesis ([3H] thymidine incorporation)” value in series [2] is on record as “decreases with the increasing concentration of obovatol”. The “Medial Area (mm^2)” value in the series with injured carotid artery [3] (100 μg obovatol in pluronic gel, topical, two weeks after injury, control 0.12 ± 0.02, P > 0.05) was determined as 0.11 ± 0.10 mm^2. The “Intimal Area (mm^2)” value in the series on injured carotid artery [3] (setting [6]) is 0.13 ± 0.03 mm^2. Further, in the series with injured carotid artery [3] (setting [6]), the “Intimal Thickness (mm)” value is recorded as 0.23 ± 0.02 mm. For the same substance, in the series on injured carotid artery [3] (100 μg obovatol in pluronic gel, topical, two weeks after injury, control 1.54 ± 0.48, P < 0.05), the “Intimal-Medial Area Ratio” value worked out at 1.12 ± 0.23. For the same substance, the “Stenosis (%)” value in the series with injured carotid artery [3] (100 μg obovatol in pluronic gel, topical, two weeks after injury, control 50.10 ± 13.25, P < 0.01) came out at 34.94 ± 7.23%. The “cytotoxicity inferred from similar medial thickness to control” value in the series with injured carotid artery [3] (rat, in vivo) is listed as “no cytotoxicity”. In series [4], the “proportion of cells in resting state (G0/G1) of the cell cycle” value is reported as “increased the proportion of cells in a resting state (G0/G1)”. Moreover, the “inner diameter of carotid artery (mean luminal diameter)” value with injured carotid artery [5] was determined as 0.78±0.06 mm.
